Reference: PMC9322761, “Design, Synthesis and Biological Characterization of Histone Deacetylase 8 (HDAC8) Proteolysis Targeting Chimeras (PROTACs) with Anti-Neuroblastoma Activity” (International Journal of Molecular Sciences, 2022)
Like-named read-outs stand apart in the source and are kept apart here.

Assays:
acetylated SMC3 = assay: Acetylation of HDAC8 substrate SMC3 in SK-N-BE(2)-C cells (Western blot); format: cell-based, human; details: 10 µM
Protocol: To test the degradation of HDAC8 with the developed PROTACs, we selected the most promising compounds obtained from the cellular neuroblastoma testing; namely CRBN_1b, CRBN_1d, CRBN_1e, HyT_1m, and HyT_1p. Whole cell lysates from treated SK-N-BE(2)-C neuroblastoma cells were taken and the protein levels for HDAC8 and the acetylation of its substrate SMC3 were determined (Figure 6). As a control for HDAC6, we also assessed acetylation levels of α-tubulin. […]. A clear dose-dependent degradation of HDAC8 by PROTAC CRBN_1e was observed (Figure 6C). After 48 h, the HDAC8 protein level was back to baseline, presumably due to de novo protein synthesis. […]. Western blot analysis was performed as described previously (Kolbinger et al.). […]
Figure 6 (A) SK-N-BE(2)-C neuroblastoma cells were treated for indicated time points with 10 µM of PROTACs. Degradation of HDAC8 and acetylation of HDAC8 target was analyzed via Western blot. […] Acetylation of HDAC8 target SMC3 and HDAC6 target tubulin, as well as total HDAC8 levels, were assessed by Western blot. Quantified ac-SMC3 or ac-tubulin expression, respectively, was normalized to the respective tubulin loading control and to the solvent control (DMSO). This quantification is reflected by the numbers below each blot. […] Total HDAC6, total HDAC1, total HDAC8, and acetyl-histone H4 expression levels, were assessed by Western blot. […]

HDAC8 [1] = target: T1, HDAC8 (Homo sapiens, UniProt Q9BY41); assay: In vitro HDAC8 activity assay (Fluor de Lys-HDAC8); format: biochemical; set-up: made in house; details: for SI (HDAC6/HDAC8): selectivity index, HDAC6 over HDAC8
T1 sequence (Q9BY41 1-377): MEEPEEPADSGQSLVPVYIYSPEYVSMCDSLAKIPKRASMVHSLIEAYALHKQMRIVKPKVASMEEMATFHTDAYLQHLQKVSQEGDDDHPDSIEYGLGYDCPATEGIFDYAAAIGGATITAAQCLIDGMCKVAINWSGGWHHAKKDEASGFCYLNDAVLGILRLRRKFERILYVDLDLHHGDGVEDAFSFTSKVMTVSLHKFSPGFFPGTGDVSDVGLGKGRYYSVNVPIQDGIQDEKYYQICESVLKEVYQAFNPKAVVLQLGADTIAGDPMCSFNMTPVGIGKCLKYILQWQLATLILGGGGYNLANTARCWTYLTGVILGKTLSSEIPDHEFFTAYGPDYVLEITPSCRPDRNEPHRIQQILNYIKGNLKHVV
Protocol: Recombinant hHDAC8 was produced by Romier et al. in Strasbourg. The HDAC8 activity assays were performed according to the commercial HDAC8 Fluorometric Drug Discovery Kit (Fluor de Lys(R)-HDAC8, BML-KI178) corresponding to the instructions of the manufacturer. As substrate a tetrapeptide connected to aminomethylcoumarin (AMC) H2N-Arg- His-Lys(Ac)-Lys(Ac)-AMC was synthesized as previously described. The enzyme was incubated for 90 min at 37 °C, with a substrate concentration of 50 µM and increasing concentrations of inhibitors. The stop-solution-containing inhibitor was added to stop the hHDAC8 activity, and Trypsin was added to release the AMC. The solution was incubated for 20 min at 37 °C to develop the assay.
(§1) Inhibition was measured at increasing concentration and IC50 was calculated by nonlinear regression with Origin 9.0G software.

HDAC8 [2] = target: T1, HDAC8; assay: HDAC8 degradation in SK-N-BE(2)-C neuroblastoma cells (Western blot); format: cell-based; set-up: endogenous in cells; host or cells: SK-N-BE(2)-C; details: SK-N-BE(2)-C cells, up to 10 µM, Western blot
Protocol: Whole cell lysates from treated SK-N-BE(2)-C neuroblastoma cells were taken and the protein levels for HDAC8 and the acetylation of its substrate SMC3 were determined (Figure 6). As a control for HDAC6, we also assessed acetylation levels of α-tubulin. […] Western blot analysis was performed as described previously (Kolbinger et al.).
Figure 6 (A) SK-N-BE(2)-C neuroblastoma cells were treated for indicated time points with 10 µM of PROTACs. Degradation of HDAC8 and acetylation of HDAC8 target was analyzed via Western blot. (B) SK-N-BE(2)-C neuroblastoma cells were treated for 6 h with indicated concentrations of HyT_1p, CRBN_1b and HyT_1m. Acetylation of HDAC8 target SMC3 and HDAC6 target tubulin, as well as total HDAC8 levels, were assessed by Western blot. Quantified ac-SMC3 or ac-tubulin expression, respectively, was normalized to the respective tubulin loading control and to the solvent control (DMSO). This quantification is reflected by the numbers below each blot. […] Total HDAC6, total HDAC1, total HDAC8, and acetyl-histone H4 expression levels, were assessed by Western blot. Total GAPDH protein levels served as a loading control (LC). * unspecific bands obtained through reprobing of the membrane.

HDAC8 [3] = system: HDAC8; set-up: method as in PMID 35311871; details: Jurkat cells; cited from earlier work
HDAC8 [4] = target: T1, HDAC8; set-up: made in house; method as in PMID 29190092, PMID 26937828; details: Table 2, previously published benzhydroxamate inhibitors; read-out: HDAC8 IC50; cited from earlier work
IMR-32 cells = assay: Cell viability / proliferation (trypan blue, viable cell count) in neuroblastoma cells; format: cell-based, human; details: 5 and 10 µM
Protocol: Moreover, we treated neuroblastoma IMR-32 cells with the remaining PROTACs and counted the resulting viable cells. We quantified the percentage of dead cells as shown in (Figure 5B,C). In addition, cell proliferation was assessed via counting of viable cells (Figure 5D,E). […] As reference, the HDAC8 inhibitor PCI-34501 was used.
Adherent cells were detached using trypsin–EDTA (ThermoFisher Scientific, Bremen, Germany) and pooled with corresponding supernatant, centrifuged, and resuspended in 1 mL of cell culture medium. Cell viability (viable cell number, % viability, % dead cells) was measured by automated trypan blue staining using the Vi-Cell XR Cell Viability Analyzer (Beckman Coulter, Krefeld, Germany).
Figure 5 (A) Neuroblastoma SK-N-BE(2)-C cells; Colony Assay, 10 days (compound treatment within first 96 h). Stained with crystal violet and quantified with ImageJ. (B,C) Trypan Blue assay for detection of dead cells. Neuroblastoma IMR-32 cells were either treated with 5 µM (B) or 10 µM (C). (D,E) Cell proliferation assessed via counting of viable cells. IMR-32 cells were either treated with 5 µM (D) or 10 µM (E) PROTACs. HDAC8i PCI-34501 served as a positive control, untreated (MEM) and solvent (DMSO) treated cells served as negative controls.

HDAC1 = HDAC1 (Homo sapiens, UniProt Q13547); assay: In vitro HDAC inhibitory activity assay, recombinant HDAC1 (fluorogenic substrate ZMAL); format: biochemical; set-up: purchased BPS Biosciences
Protocol: (§2) The in vitro testing on recombinant HDACs was performed as previously described. Recombinant human HDAC1 and −6 were purchased from BPS Biosciences. The enzyme inhibition was determined by using a reported homogenous fluorescence assay. […] Fluorescence intensity was measured at an excitation wavelength of 390 nm and an emission wavelength of 460 nm in a microtiter plate reader (BMG Polarstar).
as §1

HDAC6 = target: T2, HDAC6 (Homo sapiens, UniProt Q9UBN7); assay: In vitro HDAC inhibitory activity assay, recombinant HDAC6 (fluorogenic substrate ZMAL); format: biochemical; set-up: purchased BPS Biosciences; details: Table 1, PROTACs; read-out: HDAC6 IC50
T2 sequence (Q9UBN7 1-1215): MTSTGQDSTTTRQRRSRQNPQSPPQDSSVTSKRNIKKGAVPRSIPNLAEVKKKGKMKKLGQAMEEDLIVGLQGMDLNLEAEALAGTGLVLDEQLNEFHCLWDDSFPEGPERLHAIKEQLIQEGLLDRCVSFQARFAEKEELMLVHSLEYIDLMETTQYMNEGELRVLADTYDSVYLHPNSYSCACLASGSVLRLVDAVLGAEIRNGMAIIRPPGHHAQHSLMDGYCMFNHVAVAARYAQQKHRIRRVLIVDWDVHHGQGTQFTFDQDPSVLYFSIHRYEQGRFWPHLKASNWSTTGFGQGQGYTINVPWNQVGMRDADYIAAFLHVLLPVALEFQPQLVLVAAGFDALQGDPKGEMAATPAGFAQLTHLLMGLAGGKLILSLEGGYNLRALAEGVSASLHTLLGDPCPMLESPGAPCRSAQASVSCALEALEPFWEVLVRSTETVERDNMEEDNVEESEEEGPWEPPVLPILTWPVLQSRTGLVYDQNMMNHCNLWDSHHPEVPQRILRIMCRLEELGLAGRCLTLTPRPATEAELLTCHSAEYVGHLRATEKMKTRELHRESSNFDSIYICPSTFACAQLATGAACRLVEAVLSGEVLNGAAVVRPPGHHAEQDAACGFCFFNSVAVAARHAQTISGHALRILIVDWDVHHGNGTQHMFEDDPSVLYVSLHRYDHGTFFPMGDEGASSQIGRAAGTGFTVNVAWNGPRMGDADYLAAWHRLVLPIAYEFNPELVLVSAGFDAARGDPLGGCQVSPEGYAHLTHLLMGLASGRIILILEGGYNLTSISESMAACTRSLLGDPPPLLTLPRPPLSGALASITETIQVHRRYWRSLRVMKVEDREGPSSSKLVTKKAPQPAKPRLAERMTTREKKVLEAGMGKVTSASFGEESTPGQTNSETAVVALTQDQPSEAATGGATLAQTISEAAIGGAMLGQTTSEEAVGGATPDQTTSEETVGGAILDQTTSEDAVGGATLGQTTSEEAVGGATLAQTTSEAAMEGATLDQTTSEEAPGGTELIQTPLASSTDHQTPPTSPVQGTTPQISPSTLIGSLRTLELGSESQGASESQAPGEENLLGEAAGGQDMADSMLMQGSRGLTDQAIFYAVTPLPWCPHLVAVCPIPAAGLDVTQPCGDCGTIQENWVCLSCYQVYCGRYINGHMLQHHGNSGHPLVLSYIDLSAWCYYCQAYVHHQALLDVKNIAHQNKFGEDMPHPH
Protocol: as §2, §1

Sequence of HDAC1 (Q13547 whole entry): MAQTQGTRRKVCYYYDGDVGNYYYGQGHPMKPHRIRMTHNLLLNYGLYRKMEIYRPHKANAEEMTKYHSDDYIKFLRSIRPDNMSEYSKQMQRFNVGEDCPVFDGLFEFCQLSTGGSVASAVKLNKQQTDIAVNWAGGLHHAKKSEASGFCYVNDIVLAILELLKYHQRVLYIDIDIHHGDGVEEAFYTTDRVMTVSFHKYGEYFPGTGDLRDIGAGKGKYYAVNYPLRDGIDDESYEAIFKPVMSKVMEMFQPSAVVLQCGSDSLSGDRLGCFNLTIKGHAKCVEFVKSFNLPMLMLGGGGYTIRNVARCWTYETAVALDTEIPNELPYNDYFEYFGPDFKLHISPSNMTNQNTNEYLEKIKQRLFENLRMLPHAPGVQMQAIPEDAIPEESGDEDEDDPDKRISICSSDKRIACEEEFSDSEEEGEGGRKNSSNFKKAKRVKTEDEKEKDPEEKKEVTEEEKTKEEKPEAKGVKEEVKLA

Row | SMILES | HDAC8 degradation (HDAC8 [2]) | IC50 (HDAC8 [4]) [nM] | Effect in cell proliferation assay (viable cell count) (IMR-32 cells) | IC50 (HDAC8 [1]; Table 1, PROTACs) [nM] | IC50 (HDAC6) [nM] | SI (HDAC6/HDAC8) (HDAC8 [1]) | also measured
1 | Cc1ccc(C(=O)NO)cc1NCc1ccc(OCc2cn(Cc3ccccc3)nn2)cc1 [33b] | no HDAC8 degradation | – | – | – | – | – | Hyperacetylation of HDAC8 substrate SMC3 (acetylated SMC3): hyperacetylation of SMC3; IC50 (HDAC8 [1]; negative control without pomalidomide warhead): 698 ± 41 nM
2 | O=C1CCC(N2C(=O)c3cccc(NCCCCCCCCCCCNC(=O)c4cccc(SCc5cn(-c6cccc(C(=O)NO)c6)nn5)c4)c3C2=O)C(=O)N1 (stereo not drawn) [XIII] | – | – | – | – | – | – | HDAC8 degradation (HDAC8 [3]): efficient degradation of HDAC8 enzyme
3 | O=C(NO)c1cccc(NCc2ccccc2)c1 [2d] | – | 140 ± 10 | – | – | – | – | –
4 | COc1ccc(C(=O)NO)cc1NC(=O)c1ccc(NC(=O)CCCCCNC(=O)CC23CC4CC(CC(C4)C2)C3)cc1 [HyT_1m] | failed to degrade HDAC8 | – | less significant | 570 ± 110 | 250 ± 80 | – | inhibition at 1 µM (HDAC1; 1 µM, read-out: HDAC1 % inhib. at given conc.): 47.7%; inhibition at 10 µM (HDAC1; 10 µM, read-out: HDAC1 % inhib. at given conc.): 81.9%
5 | COc1ccc(C(=O)NO)cc1NC(=O)c1ccccc1 [2b] | – | 90 ± 20 | – | – | – | 28 | –
6 | COc1ccc(C(=O)NO)cc1NC(=O)c1ccc(NC(=O)CCCCCCC(=O)N[C@H](C(=O)N2C[C@H](O)C[C@H]2C(=O)NCc2ccc(-c3scnc3C)cc2)C(C)(C)C)cc1 [VHL_1k] | – | – | less significant | 110 ± 10 | 310 ± 10 | 3 | IC50 (HDAC1; Table 1, PROTACs, read-out: HDAC1 IC50): > 20000 nM
